Test results from ChEMBL document CHEMBL1201862, “PubChem BioAssay data set” (2004).
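Cells were grown in 96-well plates and exposed to each compound for 48 hours at five concentrations; endpoints were interpolated linearly between bracketing concentrations, or set to the highest concentration if not reached. GI50: concentration for 50% inhibition of growth.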 The source made the active and inactive calls. No stated cut-off is given here; in the data, active = GI50 up to about 1.1 µM and inactive = higher.

Columns and labels:
Experiment in all cases: inhibition of tumour cell growth, NCI panel, 48 h
Hs-578T = tested on: Hs-578T
OVCAR-3 = tested on: OVCAR-3
MOLT-4 = tested on: MOLT-4
BT-549 = tested on: BT-549
T47D = tested on: T47D
SF-295 = tested on: SF-295
PC-3 = tested on: PC-3
OVCAR-4 = tested on: OVCAR-4
Malme-3M = tested on: Malme-3M
TK-10 = tested on: TK-10
RPMI-8226 = tested on: RPMI-8226
CCRF-CEM = tested on: CCRF-CEM
SNB-19 = tested on: SNB-19
CAKI-1 = tested on: CAKI-1
COLO 205 = tested on: COLO 205
OVCAR-5 = tested on: OVCAR-5
UACC-257 = tested on: UACC-257
K562 = tested on: K562
SR = tested on: SR

Compound | GI50 (Hs-578T) | GI50 (OVCAR-3) | GI50 (MOLT-4) | GI50 (BT-549) | GI50 (T47D) | GI50 (SF-295) | GI50 (PC-3) | GI50 (OVCAR-4) | GI50 (Malme-3M) | GI50 (TK-10) | GI50 (RPMI-8226) | GI50 (CCRF-CEM) | GI50 (SNB-19) | GI50 (CAKI-1) | GI50 (COLO 205) | GI50 (OVCAR-5) | GI50 (UACC-257) | GI50 (K562) | GI50 (SR)
CCCCSC1=N/C(=C\c2ccco2)C(Cl)=N1 | > 100 µM (inactive) | > 100 µM (inactive) | > 100 µM (inactive) | > 100 µM (inactive) | > 100 µM (inactive) | > 100 µM (inactive) | > 100 µM (inactive) | > 100 µM (inactive) | > 100 µM (inactive) | > 100 µM (inactive) | > 100 µM (inactive) | > 100 µM (inactive) | > 100 µM (inactive) | > 100 µM (inactive) | > 100 µM (inactive) | > 100 µM (inactive) | > 100 µM (inactive) |  | 
CC(=O)OCOC(=O)CN(CC(=O)OCOC(C)=O)Cc1cc2c(cc1OC(C)=O)Oc1cc(OC(C)=O)c(CN(CC(=O)OCOC(C)=O)CC(=O)OCOC(C)=O)cc1C21OC(=O)c2ccccc21 | 0.345 µM (active) | 0.92 µM (active) | 0.241 µM (active) | 0.265 µM (active) | 1.4 µM (inactive) | 1.59 µM (inactive) | 1.42 µM (inactive) | 0.998 µM (active) | 0.902 µM (active) | 0.741 µM (active) |  | 0.11 µM (active) | 1.27 µM (inactive) | 2.34 µM (inactive) | 0.594 µM (active) | 2.94 µM (inactive) | 0.344 µM (active) | 0.122 µM (active) | 0.016 µM (active)
CCOc1ccc(/N=N/C2C(=O)N(C(=O)CC(=O)Nc3ccccc3)N=C2C)cc1 (configuration not stated) | 16 µM (inactive) | 53.8 µM (inactive) | 36.5 µM (inactive) | 33.6 µM (inactive) | 30.8 µM (inactive) | > 100 µM (inactive) | > 100 µM (inactive) | > 100 µM (inactive) | > 100 µM (inactive) | > 100 µM (inactive) |  | > 100 µM (inactive) | 36.5 µM (inactive) | 55.3 µM (inactive) | > 100 µM (inactive) | > 100 µM (inactive) | > 100 µM (inactive) |  | 27.4 µM (inactive)
NC(=O)c1cccc(OCC(O)CO)c1 (configuration not stated) | > 100 µM (inactive) | > 100 µM (inactive) | > 100 µM (inactive) | > 100 µM (inactive) | > 100 µM (inactive) | > 100 µM (inactive) | > 100 µM (inactive) | > 100 µM (inactive) |  | > 100 µM (inactive) |  | > 100 µM (inactive) | > 100 µM (inactive) | > 100 µM (inactive) | > 100 µM (inactive) | > 100 µM (inactive) | > 100 µM (inactive) | > 100 µM (inactive) | > 100 µM (inactive)
Cc1ccc(/N=N/c2c(C)c(C#N)c(=S)n(C3OC(CO)C(O)C(O)C3O)c2-c2ccccc2)cc1 (configuration not stated) | 24.5 µM (inactive) | 19.5 µM (inactive) | 9.73 µM (inactive) | 19.6 µM (inactive) | 22.4 µM (inactive) | 20.5 µM (inactive) | 15 µM (inactive) | 29 µM (inactive) | 24.9 µM (inactive) | 29.5 µM (inactive) | 28.9 µM (inactive) | 11.5 µM (inactive) | 19.6 µM (inactive) | 25.7 µM (inactive) | 25.1 µM (inactive) | 28.9 µM (inactive) | 28.1 µM (inactive) | 8.13 µM (inactive) | 
CC(=O)Nc1nc(NC(C)=O)c2nc(CO)[nH]c2n1 | > 100 µM (inactive) | > 100 µM (inactive) | > 100 µM (inactive) | > 100 µM (inactive) | > 100 µM (inactive) | > 100 µM (inactive) | > 100 µM (inactive) | > 100 µM (inactive) | > 100 µM (inactive) | > 100 µM (inactive) |  | > 100 µM (inactive) | > 100 µM (inactive) | > 100 µM (inactive) | > 100 µM (inactive) | > 100 µM (inactive) | > 100 µM (inactive) | > 100 µM (inactive) | > 100 µM (inactive)
Cc1cccc(/C=C2/C(=O)Nc3ccccc32)n1 | 24.2 µM (inactive) | 14.2 µM (inactive) | 7.5 µM (inactive) | 21.4 µM (inactive) | 4.95 µM (inactive) | 17.9 µM (inactive) | 16.7 µM (inactive) | 23.4 µM (inactive) | 16.3 µM (inactive) | 15.7 µM (inactive) | 14.7 µM (inactive) | 15.4 µM (inactive) | 23.7 µM (inactive) | 11.9 µM (inactive) | 19.9 µM (inactive) | 11.9 µM (inactive) |  | 9.98 µM (inactive) | 
N#C/C(=C1\N=C(c2ccccc2O)Oc2ccccc21)c1ccc([N+](=O)[O-])cc1 | 62.2 µM (inactive) | > 100 µM (inactive) | > 100 µM (inactive) | > 100 µM (inactive) | > 100 µM (inactive) | 72.3 µM (inactive) | > 100 µM (inactive) | 41.9 µM (inactive) | > 100 µM (inactive) | > 100 µM (inactive) | > 100 µM (inactive) | > 100 µM (inactive) | > 100 µM (inactive) | > 100 µM (inactive) | > 100 µM (inactive) | > 100 µM (inactive) | > 100 µM (inactive) | > 100 µM (inactive) | 
O=c1c(S(=O)(=O)Oc2ccccc2)coc2cc(F)ccc12 | 26.2 µM (inactive) | > 100 µM (inactive) | > 100 µM (inactive) | 37.2 µM (inactive) | 55 µM (inactive) | 30.3 µM (inactive) | > 100 µM (inactive) | > 100 µM (inactive) | > 100 µM (inactive) | > 100 µM (inactive) |  | 65.3 µM (inactive) | > 100 µM (inactive) | > 100 µM (inactive) |  | > 100 µM (inactive) | > 100 µM (inactive) | > 100 µM (inactive) | > 100 µM (inactive)
CCNCCNc1c2ccccc2nc2ccccc12 | 1.98 µM (inactive) | 4.05 µM (inactive) | 0.54 µM (active) | 2.84 µM (inactive) | 2.38 µM (inactive) | 1.21 µM (inactive) | 0.828 µM (active) | 1.14 µM (inactive) | 1.7 µM (inactive) | 2.91 µM (inactive) |  | 1.29 µM (inactive) | 1.01 µM (active) | 0.698 µM (active) | 0.822 µM (active) | 1.13 µM (inactive) | 1.66 µM (inactive) | 0.551 µM (active) | 0.594 µM (active)
Cc1ccc(NC(=O)CC(=O)N2N=C(N(c3ccccc3)c3ccccc3)CC2c2ccccc2)cc1 (configuration not stated) | 31.6 µM (inactive) | > 100 µM (inactive) | > 100 µM (inactive) | > 100 µM (inactive) | > 100 µM (inactive) | > 100 µM (inactive) | 85.7 µM (inactive) | > 100 µM (inactive) |  | > 100 µM (inactive) | > 100 µM (inactive) | > 100 µM (inactive) | > 100 µM (inactive) | > 100 µM (inactive) | > 100 µM (inactive) | > 100 µM (inactive) | > 100 µM (inactive) | > 100 µM (inactive) | 
